Patent US20240299542A1, “NATURAL KILLER CELLS ENGINEERED TO REDUCE OR ELIMINATE CBL-B AND USES THEREOF” (City of Hope, priority 2021, published 2024)

Legend:
Assay type in all cases: cell-based, human
[1] = test system: Mertk; test: Mertk phosphorylation by immunoblot in siRNA-transduced NK cells; settings: vs Scr siRNA
Procedure: FIGS. 5A-5D depict the results of a study showing that Cbl-b interacts with and regulates phosphorylation of Mertk in primary human NK cells. (FIG. 5A) Representative intracellular flow cytometric analysis of the TAM family receptors expression in primary human NK cells. Summarized data are shown from 6 donors. IgG1 is the isotype for Tyro3 and Axl, while IgG2 for Mertk. (FIG. 5B) The level of Mertk phosphorylation and Cbl-b in Cbl-b siRNA- or Scr siRNA-transduced primary human NK was measured by immunoblot analysis. Data presented are representative of five independent experiments. […] Data presented are representative of 4 donors performed in a similar fashion and are summarized in the panel below the representative flow dot plots. […]
FIGS. 10A-10B depict immunoblotting analysis of the phosphorylation level of Mertk (p-Mertk). (FIG. 10A) The level of Mertk phosphorylation and Cbl-b in Cbl-b siRNA- or Scr siRNA-transduced primary human NK cells was measured by immunoblot analysis. […] (FIG. 10B) The level of total Mertk expression in Cbl-b siRNA- or Scr siRNA-transduced primary human NK was measured by immunoblot analysis.
(§1) Immunoblotting. […] Densitometric analysis was performed to quantify intensity of gel bands with Image J (National Institutes of Health). […]

[2] = test system: granzyme B; test: Granzyme B protein by immunoblot in siRNA-transduced NK cells; settings: without or with IL-15 (10 ng/ml) 24 h
Procedure: FIGS. 3A-3E depict the results of a study showing that downregulation of Cbl-b enhances the cytotoxicity of primary human NK cells. (FIGS. 3A and 3B) Primary human NK cells transduced with Cbl-b siRNA or Scr siRNA for 24 h were stimulated without (FIG. 3A) or with (FIG. 3B) a low concentration of IL-15 (2 ng/ml) for 16 h, then co-cultured with ^51Cr labeled Molm-13, MV4-11 or EOL-1 leukemia cell lines for 4 h, followed by quantification of specific tumor cell lysis. Each experiment was repeated with 6 different normal donors. (FIG. 3C) qRT-PCR was performed to quantify the granzyme B (GZMB) mRNA levels (n=8 donors) in siRNA- and Scr siRNA-transduced primary human NK cells incubated without or with IL-15 (10 ng/ml) for 16 h. (FIG. 3D) The concentration of the granzyme B protein in the supernatants of Cbl-b siRNA- and Scr siRNA-transduced primary human NK cells incubated without (688.1 pg/ml vs 525.4 pg/ml; P=0.0232) or with IL-15 (10 ng/ml) for 24 h (8789 pg/ml vs 3397 pg/ml; P=0.0232) was measured by ELISA (n=8 donors). (FIG. 3E) The level of granzyme B protein in Cbl-b siRNA- and Scr siRNA-transduced primary human NK cells incubated without or with IL-15 (10 ng/ml) for 24 h was measured by immunoblot analysis. […]
as §1

[3] = test system: perform; test: Perforin mRNA by qRT-PCR in siRNA-transduced NK cells; settings: without or with IL-15 (10 ng/ml) 16 h, vs Scr siRNA
Procedure: (§2) FIG. 8A Primary human NK cells were transduced with Cbl-b siRNA or a scrambled siRNA (Scr siRNA) for 48 h, directly followed by immunoblot analysis to determine the efficiency of siRNA (n=3 donors). […] FIG. 8B qRT-PCR was performed to quantify the level of perform mRNA (n=7 donors) in Cbl-b siRNA- and Scr siRNA-transduced primary human cells incubated without or with IL-15 (10 ng/ml) for 16 h. FIG. 8C The perform protein level in Cbl-b siRNA- and Scr siRNA-transduced primary human NK cells incubated 24 without or with IL-15 (10 ng/ml) for 24 h was measured by immunoblot analysis. The data are representative of four experiments and are summarized in the right panel. Scr, scrambled; *P<0.05, **P<0.01; ns, not significant. Data are presented as mean±SEM.
Reverse transcription-polymerase chain reaction. Total RNA was isolated from primary NK cells with the RNeasy Mini Kit (Qiagen). Complementary DNA (cDNA) was generated by Moloney murine leukemia virus (M-MLV) reverse transcriptase (Invitrogen) and amplified by qPCR with SYBR Green PCR Master Mix (Applied Biosystems) and gene-specific primers. Relative amplification values were normalized to the amplification of GAPDH or 18S rRNA.
(§3) Both groups were next incubated without or with IL-15 and co-cultured with ^51Cr labeled MV4-11, Molm-13, or EOL-1 leukemia cell lines, followed by assessment of specific lysis measured after 4 h of co-culture.

[4] = test system: perform; test: Perforin protein by immunoblot in siRNA-transduced NK cells; settings: with IL-15 (10 ng/ml) 24 h, vs Scr siRNA
Procedure: as §2
Immunoblotting. Cells were harvested and suspended in RIPA lysis buffer (Thermo Fisher Scientific) on ice for 20 minutes. Equal amount of protein was resolved by 5-15% Criterion TGX gel (Bio-Rad) and then transferred onto a Nitrocellulose (NC) or PVDF membrane (Thermo Fisher Scientific). […] Densitometric analysis was performed to quantify intensity of gel bands with Image J (National Institutes of Health).
as §3

What does the source list for “Cbl-b siRNA: Cbl-b-specific Accell siRNA (Dharmacon), SEQ ID NO:1, CCUUCAUGUUCAGAUGGUU (Accell modified siRNA, pattern not given here)”?
phosphorylation level of Mertk (p-Mertk) [1]: significantly increased; total GZMB protein [2]: increase of total GZMB protein; perform mRNA [3]: did not reach a statistical significance; total protein level of perform [4]: significantly increased
